Data taken from ChEMBL document CHEMBL1201862, “PubChem BioAssay data set” (2004).
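These data come from cells grown in 96-well plates and exposed to compound for 48 hours at five concentrations. GI50 marks 50% less growth.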 Active and inactive are the calls of the source. Cut-off read from the data, not from the text of the source: active = GI50 up to about 1.1 µM and inactive = higher.

Experiments:
Experiment in all cases: NCI anticancer screen, dose series, 48 h
NCI-H460 = system: NCI-H460
MDA-MB-231 = system: MDA-MB-231
K562 = system: K562
OVCAR-3 = system: OVCAR-3
IGROV-1 = system: IGROV-1
UACC-257 = system: UACC-257
OVCAR-4 = system: OVCAR-4
SK-MEL-2 = system: SK-MEL-2
PC-3 = system: PC-3
TK-10 = system: TK-10
CAKI-1 = system: CAKI-1
RPMI-8226 = system: RPMI-8226
UO-31 = system: UO-31
HCT-15 = system: HCT-15
786-0 = system: 786-0
COLO 205 = system: COLO 205
NCI-H226 = system: NCI-H226
SK-MEL-5 = system: SK-MEL-5
SN12C = system: SN12C
HCC 2998 = system: HCC 2998

Compound	GI50 (NCI-H460)	GI50 (MDA-MB-231)	GI50 (K562)	GI50 (OVCAR-3)	GI50 (IGROV-1)	GI50 (UACC-257)	GI50 (OVCAR-4)	GI50 (SK-MEL-2)	GI50 (PC-3)	GI50 (TK-10)	GI50 (CAKI-1)	GI50 (RPMI-8226)	GI50 (UO-31)	GI50 (HCT-15) [µM]	GI50 (786-0)	GI50 (COLO 205)	GI50 (NCI-H226)	GI50 (SK-MEL-5)	GI50 (SN12C)	GI50 (HCC 2998)
CC(C)(Br)C(=O)/C=C/c1ccccc1	16.3 µM (inactive)	8.79 µM (inactive)	1.55 µM (inactive)	8.17 µM (inactive)	0.581 µM (active)	14.1 µM (inactive)	2.3 µM (inactive)	1.83 µM (inactive)	7.69 µM (inactive)	10.6 µM (inactive)	6.12 µM (inactive)	0.925 µM (active)	1.84 µM (inactive)	1.97	0.485 µM (active)	8.24 µM (inactive)	5 µM (inactive)	11.6 µM (inactive)	6.21 µM (inactive)	
CC1SC(=O)SC1C (stereo not drawn)	> 100 µM (inactive)	> 100 µM (inactive)	> 100 µM (inactive)		> 100 µM (inactive)	> 100 µM (inactive)	> 100 µM (inactive)		> 100 µM (inactive)	> 100 µM (inactive)		> 100 µM (inactive)	> 100 µM (inactive)	> 100	> 100 µM (inactive)	> 100 µM (inactive)		> 100 µM (inactive)	> 100 µM (inactive)	> 100 µM (inactive)
Nc1nc(N)c2ncn(Cc3ccccc3CO)c2n1	> 100 µM (inactive)	> 100 µM (inactive)	> 100 µM (inactive)	> 100 µM (inactive)	> 100 µM (inactive)	> 100 µM (inactive)	> 100 µM (inactive)	> 100 µM (inactive)	> 100 µM (inactive)	> 100 µM (inactive)	> 100 µM (inactive)	> 100 µM (inactive)	> 100 µM (inactive)	> 100	> 100 µM (inactive)	> 100 µM (inactive)	> 100 µM (inactive)	> 100 µM (inactive)	> 100 µM (inactive)	
CC1CN=C(N(C)C(=O)Nc2ccc(Cl)cc2)S1 (stereo not drawn)	3.77 µM (inactive)	32.1 µM (inactive)	8.61 µM (inactive)	27.2 µM (inactive)	4.56 µM (inactive)	11.5 µM (inactive)	65.2 µM (inactive)	15.4 µM (inactive)	15.7 µM (inactive)	29.1 µM (inactive)	3.64 µM (inactive)	> 10 µM (inactive)	10.1 µM (inactive)	0.841	19.5 µM (inactive)	13.4 µM (inactive)		9.04 µM (inactive)	15.2 µM (inactive)	4.29 µM (inactive)
COc1ccc(OC)c2c(C(C)=O)cccc12	> 100 µM (inactive)	> 100 µM (inactive)	> 100 µM (inactive)	> 100 µM (inactive)	> 100 µM (inactive)	> 100 µM (inactive)			> 100 µM (inactive)	> 100 µM (inactive)		> 100 µM (inactive)	> 100 µM (inactive)	> 100	> 100 µM (inactive)	> 100 µM (inactive)	46.2 µM (inactive)	> 100 µM (inactive)	> 100 µM (inactive)	> 100 µM (inactive)
COc1cc2c(c3nc4ccccc4nc13)-c1ccc(SC)c(=O)cc1[C@@H](NC(C)=O)CC2	0.0893 µM (active)	0.0966 µM (active)	0.0328 µM (active)	0.0545 µM (active)	0.0267 µM (active)	0.069 µM (active)	0.0562 µM (active)		0.0479 µM (active)		1.83 µM (inactive)	0.0387 µM (active)	6.3 µM (inactive)	1.23	0.115 µM (active)	0.0262 µM (active)	0.135 µM (active)	0.0347 µM (active)	0.0968 µM (active)	0.0935 µM (active)
